From article PMC4746303, “Inactivation of Anopheles gambiae Glutathione Transferase ε2 by Epiphyllocoumarin” (Biochemistry Research International, 2016) come the findings set out here.

Assay [1] concerns the target T1, Glutathione transferase epsilon 2 (AgGSTε2) (Anopheles gambiae, UniProt Q9GPL8).
T1 construct: recombinant AgGSTε2 expressed from pET3a in E. coli BL21 (DE3) pLysS
T1 sequence (Q9GPL8 1-221): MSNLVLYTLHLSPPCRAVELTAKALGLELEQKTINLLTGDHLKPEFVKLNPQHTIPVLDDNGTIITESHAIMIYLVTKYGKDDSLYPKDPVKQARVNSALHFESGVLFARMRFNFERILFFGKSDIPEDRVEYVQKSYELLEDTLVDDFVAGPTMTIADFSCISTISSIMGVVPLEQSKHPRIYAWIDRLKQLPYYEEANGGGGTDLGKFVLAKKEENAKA
Kind of assay: time-dependent inactivation of purified enzyme at […] (positive control), half-life […] min. Format: biochemical.

For assay [2], the target named is T1, Glutathione transferase epsilon 2 (AgGSTε2). The experiment in a line: time- and concentration-dependent inactivation of purified enzyme, GST activity (CDNB/GSH) assay; KI […], kinact […] min^-1. Format: biochemical.

For the compound `C=C(CC)C(=O)c1ccc(OCC(=O)O)c(Cl)c1Cl` [ETA, ethacrynic acid], the “time-dependent inactivation of purified enzyme at 25 μM (positive control), half” value in assay [1] came out at 22 min.
Regarding `O=c1ccc2c3c(c(O)cc2o1)C[C@@H](O)[C@@H](c1ccc(O)c(O)c1)O3` [Tral 1, epiphyllocoumarin], the KI (inactivation) in assay [2] was 7.5 ± 2.1 µM.
